Laboratory results published in article PMC12470154, “In Vitro Evaluation of Antimicrobial Amyloidogenic Peptides for the Treatment of Early and Mature Bacterial Biofilms” (International Journal of Molecular Sciences, 2025).

Key:
[1] = system: S. aureus (129B strain); test: Early biofilm formation, crystal violet staining; assay type: cell-based, Staphylococcus aureus; set-up: key: ↓: Decrease in the parameter (optical density) compared to the negative control; −: No decrease in the parameter; ↑: Reverse effect (increase in the optical density compared to the control); details: peptide present from inoculation, 24 h, OD 595 nm
Description: (§1) After 24 h of incubation, the medium was removed. To assess the total biofilm biomass, the wells were rinsed with sterile PBS solution and stained with 0.1% crystal violet. The dye bound to the surface was then removed using 95% ethanol. To assess the presence of metabolically active cells, 0.3% MTT (PanEco Ltd., Moscow, Russia) solution was added to each well, and the plates were incubated at 37 °C for 2 h. After incubation, the MTT solution was removed, 150 µL of DMSO (Chimmed, Moscow, Russia) and 25 µL of glycine buffer were added to each well, and the plates were left at room temperature for 15 min. The resulting solutions were transferred to a flat-bottom 96-well plate, and optical density was measured at 595 nm.

[2] = system: E. coli (MG1655 strain); test: Antibacterial activity in liquid medium (optical density); assay type: cell-based, Escherichia coli; set-up: key to change of optical density vs negative control: ↓: Decrease in the parameter (optical density) compared to the negative control; −: No decrease in the parameter; ↑: Reverse effect (increase in the optical density compared to the control); details: 24 h, 37 °C; for change of optical density vs negative control: OD 595 nm
Description: To evaluate the antibacterial activity of peptides in liquid culture, a stationary-phase culture of the tested bacterial strain was diluted 100-fold in fresh medium containing peptides or gentamicin (positive control) at the specified concentrations. A total volume of 200 µL was added to each well of a 96-well round-bottom microtiter plate. After 24 h of incubation at 37 °C, the samples were transferred to a flat-bottom 96-well microtiter plate, and the optical density was measured at 595 nm. Separately, the optical density of medium containing peptides but no bacteria was measured. These values were used as baseline (zero) readings for subsequent data analysis.

[3] = system: P. aeruginosa (2943 strain); test: Early biofilm formation, MTT assay; assay type: cell-based, Pseudomonas aeruginosa; set-up: key: ↓: Decrease in the parameter (optical density) compared to the negative control; −: No decrease in the optical density; ↑: Reverse effect (increase in the optical density compared to the control); details: 24 h, 0.3% MTT 2 h 37 °C, OD 595 nm
Description: as §1

[4] = system: E. coli (MG1655 strain); test: Mature biofilms, MTT assay; assay type: cell-based, Escherichia coli; set-up: key: ↓: Decrease in the parameter (optical density) compared to the negative control; −: No decrease in the optical density; ↑: Reverse effect (increase in the optical density compared to the control); details: mature biofilm: peptide added after 24 h, further 24 h; 0.01-10 mg/mL
Description: as §1
(§2) A stationary-phase culture of the tested strain was diluted 100-fold in fresh medium (200 µL per well) and added to the wells of a 96-well round-bottom plate. […] After another 24 h, the medium was removed and the wells were rinsed with sterile PBS to eliminate planktonic cells. The procedures for assessing total biofilm biomass and cell metabolic activity using crystal violet and MTT assays were performed in the same manner as described above for early-stage biofilm experiments.

[5] = system: E. coli (MG1655 strain); test: Mature biofilms, crystal violet staining; assay type: cell-based, Escherichia coli; set-up: key: ↓: Decrease in the parameter (optical density) compared to the negative control; −: No decrease in the optical density; ↑: Reverse effect (increase in the optical density compared to the control); details: mature biofilm: peptide added after 24 h, further 24 h, 0.01-10 mg/mL
Description: as §1, §2

[6] = system: P. aeruginosa (2943 strain); test: Mature biofilms, MTT assay; assay type: cell-based, Pseudomonas aeruginosa; set-up: key: ↓: Decrease in the parameter (optical density) compared to the negative control; −: No decrease in the parameter; ↑: Reverse effect (increase in the optical density compared to the control); details: mature biofilm: peptide added after 24 h, further 24 h; 0.01-10 mg/mL
Description: as §1, §2

[7] = system: MRSA (SA 180-F strain); test: Mature biofilms, crystal violet staining; assay type: cell-based, methicillin-resistant Staphylococcus aureus; set-up: key: ↓: Decrease in the parameter (optical density) compared to the negative control; −: No decrease in the optical density; ↑: Reverse effect (increase in the optical density compared to the control); details: mature biofilm: peptide added after 24 h, further 24 h; 0.01-10 mg/mL
Description: as §1, §2

[8] = system: E. coli (MG1655 strain); test: Antibacterial activity on 0.7% agar (inhibition zone); assay type: cell-based, Escherichia coli; set-up: key: +: The presence of a bacterial growth inhibition zone; −: The absence of a bacterial growth inhibition zone; details: drop on 0.7% agar, 24 h
Description: Drops of the samples were applied to the surface of solidified 0.7% agar at the concentrations indicated in Table 2 and Supplementary S2 (Figures S1–S4). After 24 h of incubation, the results were evaluated based on the presence or absence (+/−) of inhibition zones.
Once the agar solidified, drops of peptide samples at the concentrations 1, 0.1, 0.01, and 0.001 mg/mL were applied to the agar surface.

[9] = system: P. aeruginosa (2943 strain); test: Early biofilm formation, MTT assay; assay type: cell-based, Pseudomonas aeruginosa; set-up: key: ↓: Decrease in the parameter (optical density) compared to the negative control; −: No decrease in the parameter; ↑: Reverse effect (increase in the optical density compared to the control); details: 24 h, 0.3% MTT 2 h 37 °C, OD 595 nm
Description: as §1

[10] = system: E. coli (MG1655 strain); test: Mature biofilms, MTT assay; assay type: cell-based, Escherichia coli; details: mature biofilm
Description: as §1, §2

[11] = system: P. aeruginosa (2943 strain); test: Mature biofilms, MTT assay; assay type: cell-based, Pseudomonas aeruginosa; details: mature biofilm
Description: as §1, §2

[12] = system: P. aeruginosa (2943 strain); test: Mature biofilms, MTT assay; assay type: cell-based, Pseudomonas aeruginosa; set-up: key: ↓: Decrease in the parameter (optical density) compared to the negative control; −: No decrease in the optical density; ↑: Reverse effect (increase in the optical density compared to the control); details: mature biofilm: peptide added after 24 h, further 24 h, 0.01-10 mg/mL
Description: as §1, §2

Sequence | change of optical density after crystal violet staining vs negative control [1] | change of optical density vs negative control [2] | change of optical density after MTT assay vs negative control [3] | change of optical density after MTT assay vs negative control [4] | change of optical density after crystal violet staining vs negative control [5] | change of optical density after MTT assay vs negative control [6] | concentration given with ↓ (decrease in optical density) [2] | change of optical density after crystal violet staining vs negative control [7] | bacterial growth inhibition zone ([8]; 0.001 mg/mL) | bacterial growth inhibition zone ([8]; 0.01 mg/mL) | bacterial growth inhibition zone ([8]; 0.1 mg/mL) | bacterial growth inhibition zone ([8]; 1 mg/mL) | residual viability of cells (MTT) [10] | residual viability of cells (MTT) [11] | also measured
ITDFGIFIGLGGGGSRQIKIWFQNRRMKWKK [I31K^P] | ↑ | − | − | − | − | ↑ |  |  |  |  |  |  |  |  | 
RKKRRQRRRGGGGITDFGIFIGL [R23L^P] | ↑ | ↓ (0.1 mg/mL) |  | − |  | ↑ | 0.1 mg/mL | − | − | − | − | + | did not inhibit | did not inhibit | change of optical density after MTT assay vs negative control [9]: ↑
RKKRRQRRRGGGGVTDFGVFVEI [R23I^T, TAT cell-penetrating peptide linked via glycine linker to amyloidogenic fragment of S1 ribosomal protein of T. thermophilus] | ↑ | ↑ | − |  | − |  |  | − | − | − | − | − | did not inhibit | did not inhibit | change of optical density after MTT assay vs negative control [12]: −
RKKRRQRRRGGGGVVVHINGGKFGGGGSRQIKIWFQNRRMKWKK [R44K^S] | ↑ | ↓ (0.1 mg/mL) | − |  |  | ↑ | 0.1 mg/mL |  | − | − | − | − | did not inhibit | did not inhibit | change of optical density after MTT assay vs negative control ([9]; listed as R44K^P): ↓ (10 mg/mL); change of optical density after MTT assay vs negative control ([12]; listed as R44K^P): −; change of optical density after crystal violet staining vs negative control ([5]; listed as R44K^P): −
VTDFGVFVEIGGGGSRQIKIWFQNRRMKWKK [V31K^T, amyloidogenic fragment of S1 of T. thermophilus linked via glycine-rich linker to antennapedia peptide] | ↑ | − | − | − |  | ↑ | 0.1 mg/mL | − | − | − | − | − | did not inhibit | did not inhibit | change of optical density vs negative control ([2]; listed as V31K^S): ↓ (0.1 mg/mL); bacterial growth inhibition zone ([8]; 1 mg/mL, listed as V31K^S): +; change of optical density after MTT assay vs negative control ([9]; listed as V31K^S): ↓ (10 mg/mL); change of optical density after MTT assay vs negative control ([12]; listed as V31K^S): −; change of optical density after crystal violet staining vs negative control ([5]; listed as V31K^S): −
